From patent US11173144B2, “Adrenergic receptor modulating compounds and methods of using the same” (The Board of Trustees of the Leland Stanford Junior …, priority 2016, dated 2021)
Entries after “also recorded” stand apart in the source; their conditions may differ.

Key:
[1] = system: LPS-induced TNF-α production in primary microglia; test: In vitro primary microglia TNF-α assay (LPS stimulation, ELISA); type: cell-based, rat; details: rat primary microglia, LPS 10 ng/ml, compound 10 μM, 4 h; read-out: inhibition of LPS-induced TNF-α production
Source text: Mixed glial cells are obtained from the cerebral cortex of Sprague Dawley rat pups at postnatal days 1-3. Briefly, neonates are euthanized by decapitation and their brain tissues are collected for isolation of cortex. The isolated cortex was then trypsinized, triturated, and placed onto tissue culture flasks in DMEM supplemented with 10% fetal bovine serum and 1% Penicillin/Streptomycin. After 10 days in vitro, microglia are harvested by gentle shaking of the growth flask, plated in a 96 well plate at a density of 30,000 cells/well, and incubated at 37° C. overnight. […] Following the 4 h incubation, cell media is collected and the concentration of TNF-α is measured by ELISA (Invitrogen, KRC3011) according to the manufacturer's instruction.
The effects of selected compounds on cellular inflammatory response to LPS are determined in primary microglia extracted from a rat. Briefly, mixed glial cells are obtained from the cerebral cortex of Sprague Dawley rat pups at postnatal days 1-3 and cultured in DMEM supplemented with 10% fetal bovine serum. After 7 days in vitro, microglia are harvested by gentle shaking of the growth flask and plated in a 96 well plate at the density of 3×10^4 cells/well. The cells are used following day. Effects of compounds on LPS-induced TNFα production are determined by incubating cells with LPS along with or without test compounds for 4 hours. Following the 4 hour incubation, cell media are collected and concentration of TNFα was measured by EUSA.

[2] = system: LPS-induced TNF-α response; test: In vivo LPS assay; design: species or system C57BI/6J mice; details: mice, 3 mg/kg 15 min prior to LPS, 90 min post-LPS
Description: Amplification is performed using StepOnePlus (Applied Biosystems).
Following injections, mice are single-housed. At 90 min post-LPS/saline, mice are deeply anesthetized with isoflurane and blood is collected from the right ventricle via cardiac puncture (23 g needle) into lithium heparin-containing vials (BD microtainer plasma tubes). Plasma is separated by centrifugation (11,000 rpm for 3 minutes) within 30 min of collection and stored at −80° C. until analysis. The concentration of TNF-α in the collected plasma is measured by ELISA (Invitrogen, KMC3012) according to the manufacturer's instruction.

α1D adrenergic receptor = α1D adrenergic receptor (Homo sapiens (Human), UniProt P25100); test: CNS target panel screen: α1D adrenergic receptor; type: binding
Source text: (§1) From a drug development perspective, characterizing the off-target effects of lead compounds is an important issue, as interactions with off-target molecules may lead to undesirable side effects. Thus we screened xamoterol (S) and the key compound compound 43 against a panel of CNS relevant targets, including G-protein coupled receptor and transporters. […].

5-HT1A = 5-HT1A (Homo sapiens (Human), UniProt P08908); test: CNS target panel screen: 5-HT1A; type: binding
Source text: as §1

[3] = system: Abeta-induced LTP impairment in hippocampal slices; test: Long-term potentiation in hippocampal slices exposed to amyloid beta; details: mouse hippocampal slices, 10 uM
Description: Mice were anesthetized with isoflurane before decapitation. The brain was quickly removed and immersed for 2 min in ice-cold low-calcium modified artificial cerebrospinal fluid (mACSF) composed of (in mM): 119 NaCl, 2.5 KCl, 1 CaCl2, 3 MgSO4, 1 NaH2PO4, 26 NaHCO3 and 10 glucose, osmolarity ˜305 mOsm, continuously bubbled with 95% O2-5% CO2, pH=7.4. The hippocampus was dissected out and cut in ice-cold mACSF with a vibratome (Leica VT1000S; Nussloch, Germany) into […] slices from the middle part of the hippocampus. The slices were allowed to recover in oxygenated mACSF at 33° C. for 10 min, and then at room temperature for an additional 2-3 hr before experimental recordings. Slices were transferred into the recording chamber and superfused with regular ACSF containing (in mM): 119 NaCl, 2.5 KCl, 2.5 CaCl2, 1.3 MgSO4, 1 NaH2PO4, 26 NaHCO3 and 10 glucose, continuously bubbled with 95% O2-5% C02, pH=7.4, osmolarity ˜305 mOsm, at a constant rate of 2.7 mL/min at 32° C. […] The initial slope of field excitatory postsynaptic potentials (fEPSP) was measured at latencies 0.1-0.9 ms. […] After stabilization of responses, input-output dependences were measured using series of stimulation intensities (range 30-150 μA). […] LTP was induced by high-frequency tetanization ([…], 100 Hz for 1 sec), and the responses were recorded for the period of 1.5 h after the tetanus.

Sequence of 5-HT1A (P08908 whole entry, species assumed): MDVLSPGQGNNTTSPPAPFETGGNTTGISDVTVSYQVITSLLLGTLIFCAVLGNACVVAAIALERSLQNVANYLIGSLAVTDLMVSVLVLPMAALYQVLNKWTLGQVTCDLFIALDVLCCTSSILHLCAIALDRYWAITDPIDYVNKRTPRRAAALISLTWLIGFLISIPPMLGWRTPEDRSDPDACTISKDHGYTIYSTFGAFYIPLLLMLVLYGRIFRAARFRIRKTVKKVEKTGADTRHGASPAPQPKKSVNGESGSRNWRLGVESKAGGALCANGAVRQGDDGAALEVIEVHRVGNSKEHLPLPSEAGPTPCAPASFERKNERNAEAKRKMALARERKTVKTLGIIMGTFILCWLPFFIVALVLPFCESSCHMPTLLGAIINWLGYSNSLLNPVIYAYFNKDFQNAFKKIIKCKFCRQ
Sequence of α1D adrenergic receptor (P25100 whole entry): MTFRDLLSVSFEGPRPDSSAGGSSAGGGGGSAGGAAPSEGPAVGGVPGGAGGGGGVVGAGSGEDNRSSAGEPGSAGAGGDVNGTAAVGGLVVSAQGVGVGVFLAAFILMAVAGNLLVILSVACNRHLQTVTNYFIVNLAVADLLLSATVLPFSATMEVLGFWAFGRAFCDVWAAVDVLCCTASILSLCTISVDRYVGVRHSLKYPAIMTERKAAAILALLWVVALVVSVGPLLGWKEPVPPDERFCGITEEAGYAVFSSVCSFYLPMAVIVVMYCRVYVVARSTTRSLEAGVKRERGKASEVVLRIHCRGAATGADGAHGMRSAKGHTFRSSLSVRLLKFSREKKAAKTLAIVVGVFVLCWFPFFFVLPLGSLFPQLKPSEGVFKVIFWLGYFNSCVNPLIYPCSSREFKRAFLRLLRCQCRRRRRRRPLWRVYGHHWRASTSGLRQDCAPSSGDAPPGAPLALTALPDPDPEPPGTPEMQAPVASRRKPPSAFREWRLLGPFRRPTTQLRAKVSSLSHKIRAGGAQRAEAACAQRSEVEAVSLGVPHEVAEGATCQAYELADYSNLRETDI

Row | SMILES | inhibition at 10 µM [1] | LPS-induced TNF-α response in periphery (plasma) [2] | LPS-induced inflammatory response in the brain (TNF-α, IL-1β, IL-6 gene expression) [2] | affinity for α1D adrenergic receptor (α1D adrenergic receptor) | affinity for 5-HT1A (5-HT1A) | amyloid beta-induced LTP impairment [3]
1 | COc1ccccc1OCCNC[C@H](O)COc1ccc(O)cc1 [Compound 43] | ~55% | markedly inhibited | attenuated | significant affinity | significant affinity | –
2 | O=C(NCCNCC(O)COc1ccc(O)cc1)N1CCOCC1 (stereo not drawn) [Xamoterol, reference compound] | – | – | – | – | – | blocks the LTP impairment induced by Ab; also recorded: blocks the Ab-induced LTP in impairment
